pIC50: −log10 of the molar value. Numbered stars: 1 amine (or outer) side, 2 acyl side, 3 side chain; on linkers, the order of the positions; unused ones are H or OH. Bridge positions count the residues as written; N and C are the ends. Square brackets hold non-standard residues; d marks the D form. Peptide text beside a SMILES is read from it. * marks the point of attachment. hPhe(3-Cl-4-CF3) = N[C@@H](CCc1ccc(C(F)(F)F)c(Cl)c1)C(=O)O; hPhe(3-F,4-CF3) = N[C@@H](CCc1ccc(C(F)(F)F)c(F)c1)C(=O)O; X19 = O=C([C@@H]1C[C@@H](N2CCC(F)(F)CC2)CN1[*:1])[*:2]; NEtPhe(4-Me) = CCN[C@@H](Cc1ccc(C)cc1)C(=O)O; NMePhe(4-Me) = CN[C@@H](Cc1ccc(C)cc1)C(=O)O; NMedβ3hAla = C[C@H](CC(=O)[*:2])N(C)[*:1]; NMeGly(cPent) = CN[C@H](C(=O)O)C1CCCC1; NMeGly(cBu) = CN[C@H](C(=O)O)C1CCC1; NMeCha = CN[C@@H](CC1CCCCC1)C(=O)O; NMeAhp(2) = CCCCC[C@H](NC)C(=O)O; NMeI = CC[C@H](C)[C@H](NC)C(=O)O; NMeD = CN[C@@H](CC(=O)O)C(=O)O; NMeL = CN[C@@H](CC(C)C)C(=O)O; NMeV = CN[C@H](C(=O)O)C(C)C; NMeC = CN[C@@H](CS)C(=O)O; NPhGly = O=C(O)CNc1ccccc1; NMeA = CN[C@@H](C)C(=O)O; NMeAib = CNC(C)(C)C(=O)O; Piperidide = C1CCN(*)CC1; dNMeA = CN[C@H](C)C(=O)O; Ac5c = NC1(C(=O)O)CCCC1; Aze = O=C(O)[C@@H]1CCN1; Sar = CNCC(=O)O
Key:
[1] = target: protein-protein interaction between Kras and SOS1 (biotin-tagged human Kras loaded with GDP, His-tagged human SOS1) (Homo sapiens (Human), UniProt P01116, G12D); experiment: Protein-protein interaction inhibition between Kras and SOS1 (KrasG12D-SOS PPI) using AlphaScreen; format: biochemical; details: AlphaScreen; biotin-tagged human Kras loaded with GDP, His-tagged human SOS1; read-out: KRAS G12D-SOS PPI IC50;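 note: kras produced in E. coli, Ni-coupled donor beads and streptavidin acceptor beads, excitation 680 nm with emission detected at 520–620 nm via singlet oxygen transfer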
[2] = tested on: Human pancreatic cancer cell line AsPC-1 (G12D mutation Kras); experiment: AsPC-1 cell growth inhibition (AsPC-1 CGI); format: cell-based; details: read-out: AsPC-1 cell growth inhibition, 50% growth inhibitory concentration (IC50 value); 96 hours, CellTiter-Glo, values classified in ranges
Description: Test compounds were serially dilated with dimethyl sulfoxide, and 200 nL was then dispensed to a U-bottom 96-well plate using Labcyte Echo. […] The cell suspension was dispensed to a. plate containing a test compound at 100 μL per well and incubated at 37° C. in a 5% carbon dioxide gas incubator. 96 hours later, 80 μL of CellTiter-Glo (Promega) was added to each well and fluorescence was measured.

SMILES | pIC50 [1] | pIC50 [2]
CCCCC[C@H]1C(=O)N[C@@H]([C@@H](C)CC)C(=O)N(C)[C@@H](C)C(=O)N2CC[C@H]2C(=O)N(C)[C@@H](Cc2ccc(C)cc2)C(=O)N(C)CC(=O)N[C@@H](CCc2ccc(C(F)(F)F)c(Cl)c2)C(=O)N2CCC[C@H]2C(=O)NC2(CCCC2)C(=O)N(C)[C@@H]([C@@H](C)CC)C(=O)N(C)[C@H](C(=O)N(C)C)CC(=O)N1C [Compound 896] ([NMeAhp(2)]I[NMeA][Aze][NMePhe(4-Me)][Sar][hPhe(3-Cl-4-CF3)]P[Ac5c][NMeI][NMeD]-NMe2; lactam N-11) | 8.96 | ≥ 7.70
CC[C@H](C)[C@@H]1NC(=O)[C@H](C)N(C)C(=O)C[C@@H](C(=O)N2CCCCC2)N(C)C(=O)[C@H](C(C)C)N(C)C(=O)C2(CCCC2)NC(=O)[C@@H]2CCCN2C(=O)[C@H](CCc2ccc(C(F)(F)F)c(Cl)c2)NC(=O)[C@@H](C)N(C)C(=O)[C@H](CC2CCCCC2)N(C)C(=O)[C@@H]2CCCN2C(=O)CN(C)C1=O [Compound 307] ([NMeA]I[Sar]P[NMeCha][dNMeA][hPhe(3-Cl-4-CF3)]P[Ac5c][NMeV][NMeD]-Piperidide; lactam N-11) | 8.36 | < 6.30
CC[C@H](C)[C@@H]1NC(=O)[C@H](CC(C)C)N(C)C(=O)CSC[C@@H](C(=O)N(C)C)N(C)C(=O)[C@H](C2CCCC2)N(C)C(=O)C2(CCCC2)NC(=O)[C@@H]2CCCN2C(=O)[C@H](CCc2ccc(C(F)(F)F)c(F)c2)NC(=O)CN(C)C(=O)[C@H](C2CCCC2)N(C)C(=O)[C@@H]2CCN2C(=O)[C@H](C)N(C)C1=O [Compound 2179] ({CH2CO}-[NMeL]I[NMeA][Aze][NMeGly(cPent)][Sar][hPhe(3-F,4-CF3)]P[Ac5c][NMeGly(cPent)][NMeC]-NMe2; thioether N-11) | 6.27 | < 6.30
CC[C@H](C)[C@@H]1NC(=O)[C@H](C)N(C)C(=O)C[C@@H](C(=O)N2CCCCC2)N(C)C(=O)[C@H](C(C)C)N(C)C(=O)C2(CCCC2)NC(=O)[C@@H]2C[C@@H](N3CCC(F)(F)CC3)CN2C(=O)[C@H](CCc2ccc(C(F)(F)F)c(Cl)c2)NC(=O)CN(C)C(=O)[C@H](CC2CCCCC2)N(C)C(=O)CN(C)C(=O)CN(C)C1=O [Compound 914] ([NMeA]I[Sar][Sar][NMeCha][Sar][hPhe(3-Cl-4-CF3)][X19][Ac5c][NMeV][NMeD]-Piperidide; lactam N-11) | 8.96 | < 6.30
CCCCC[C@H]1C(=O)N[C@@H]([C@@H](C)CC)C(=O)N[C@@H](C)C(=O)N2CC[C@H]2C(=O)N(C)[C@@H](Cc2ccc(C)cc2)C(=O)N(C)CC(=O)N[C@@H](CCc2ccc(C(F)(F)F)c(Cl)c2)C(=O)N2CCC[C@H]2C(=O)NC2(CCCC2)C(=O)N(C)[C@@H]([C@@H](C)CC)C(=O)N(C)[C@H](C(=O)N(C)C)CC(=O)N1C [Compound 342] ([NMeAhp(2)]IA[Aze][NMePhe(4-Me)][Sar][hPhe(3-Cl-4-CF3)]P[Ac5c][NMeI][NMeD]-NMe2; lactam N-11) | 9.02 | ≥ 7.70
CC[C@H](C)[C@@H]1NC(=O)[C@H](CC(C)C)N(C)C(=O)C[C@@H](C(=O)N(C)C)N(C)C(=O)[C@H](C2CCCC2)N(C)C(=O)C2(CCCC2)NC(=O)[C@@H]2CCCN2C(=O)[C@H](CCc2ccc(C(F)(F)F)c(Cl)c2)NC(=O)CN(C)C(=O)[C@H](Cc2ccc(C)cc2)N(CC)C(=O)[C@@H]2CCN2C(=O)[C@H](C)N(C)C1=O [Compound 279] ([NMeL]I[NMeA][Aze][NEtPhe(4-Me)][Sar][hPhe(3-Cl-4-CF3)]P[Ac5c][NMeGly(cPent)][NMeD]-NMe2; lactam N-11) | 9.00 | ≥ 7.70
CC[C@H](C)[C@@H]1NC(=O)[C@H](C)N(C)C(=O)C[C@@H](C)N(C)C(=O)[C@H](C2CCC2)N(C)C(=O)C(C)(C)N(C)C(=O)CN(c2ccccc2)C(=O)[C@H](CCc2ccc(C(F)(F)F)c(Cl)c2)NC(=O)CN(C)C(=O)[C@H](CC2CCCCC2)N(C)C(=O)CN(C)C(=O)CN(C)C1=O [Compound 2145] (cyclo(I[Sar][Sar][NMeCha][Sar][hPhe(3-Cl-4-CF3)][NPhGly][NMeAib][NMeGly(cBu)][NMedβ3hAla][NMeA])) | 7.66 | < 6.30
CC[C@H](C)[C@@H]1NC(=O)[C@H](CC(C)C)N(C)C(=O)C[C@@H](C(=O)N2CCCCC2)N(C)C(=O)[C@H](CC2CCCCC2)N(C)C(=O)C2(CCCC2)NC(=O)[C@@H]2CCCN2C(=O)[C@H](CCc2ccc(C(F)(F)F)c(Cl)c2)NC(=O)CN(C)C(=O)[C@H](CC2CCCCC2)N(C)C(=O)[C@@H]2CCN2C(=O)[C@H](C)N(C)C1=O [Compound 87] ([NMeL]I[NMeA][Aze][NMeCha][Sar][hPhe(3-Cl-4-CF3)]P[Ac5c][NMeCha][NMeD]-Piperidide; lactam N-11) | 7.35 | < 6.30
